Source: patent US20230117470A1, “SUBSTITUTED PYRAZOLE COMPOUNDS AS TOLL RECEPTOR INHIBITORS” (BRISTOL-MYERS SQUIBB COMPANY, priority 2019, published 2023)

Assays:
Assay type in all cases: cell-based
[1] = biological target: T1, human TLR7 (Homo sapiens, UniProt Q9NYK1); assay: TLR7 inhibition reporter assay (HEK-Blue cells, SEAP reporter, gardiquimod stimulation); details: HEK-Blue cells overexpressing human TLR7, SEAP reporter, gardiquimod 7.5 μM
T1 construct: host or cells: HEK-Blue cells
T1 sequence (Q9NYK1 27-1049): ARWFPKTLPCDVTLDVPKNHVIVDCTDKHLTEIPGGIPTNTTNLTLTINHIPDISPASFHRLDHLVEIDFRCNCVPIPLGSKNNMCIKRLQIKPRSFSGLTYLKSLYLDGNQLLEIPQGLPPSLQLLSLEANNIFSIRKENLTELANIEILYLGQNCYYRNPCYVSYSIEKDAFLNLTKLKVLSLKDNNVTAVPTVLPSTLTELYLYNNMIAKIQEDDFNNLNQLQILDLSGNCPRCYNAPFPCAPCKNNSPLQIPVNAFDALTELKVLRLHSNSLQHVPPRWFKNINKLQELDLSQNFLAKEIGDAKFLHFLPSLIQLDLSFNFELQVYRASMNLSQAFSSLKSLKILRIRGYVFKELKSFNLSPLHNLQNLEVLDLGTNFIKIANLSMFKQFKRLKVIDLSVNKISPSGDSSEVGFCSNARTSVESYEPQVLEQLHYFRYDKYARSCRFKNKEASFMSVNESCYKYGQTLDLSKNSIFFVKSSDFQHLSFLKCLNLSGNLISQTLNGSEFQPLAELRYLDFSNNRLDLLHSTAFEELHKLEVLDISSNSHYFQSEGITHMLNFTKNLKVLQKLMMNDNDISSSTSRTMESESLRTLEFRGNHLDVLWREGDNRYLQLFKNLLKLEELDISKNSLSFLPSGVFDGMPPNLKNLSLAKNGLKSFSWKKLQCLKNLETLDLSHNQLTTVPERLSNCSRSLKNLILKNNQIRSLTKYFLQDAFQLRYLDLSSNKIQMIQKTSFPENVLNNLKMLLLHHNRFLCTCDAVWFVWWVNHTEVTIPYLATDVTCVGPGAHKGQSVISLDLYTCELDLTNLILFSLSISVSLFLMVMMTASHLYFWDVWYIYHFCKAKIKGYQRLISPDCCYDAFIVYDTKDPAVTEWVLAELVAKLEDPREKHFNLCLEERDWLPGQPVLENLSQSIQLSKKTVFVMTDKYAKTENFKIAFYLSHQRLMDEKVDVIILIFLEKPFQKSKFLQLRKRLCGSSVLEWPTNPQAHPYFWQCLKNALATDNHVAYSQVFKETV
Procedure, shortened: (§1)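 Ligand levels differed by receptor: TLR7 got gardiquimod at 7.5 μM, TLR8 got R848 at 15.9 μM, and TLR9 got ODN2006 at 5 nM, each added after a 30-min room-temperature compound exposure. Incubation lasted 22 h at 37° C before colorimetric SEAP detection.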

[2] = biological target: T2, human TLR8 (Homo sapiens, UniProt Q9NR97); assay: TLR8 inhibition reporter assay (HEK-Blue cells, SEAP reporter, R848 stimulation); details: HEK-Blue cells overexpressing human TLR8, SEAP reporter, R848 15.9 μM
T2 construct: host or cells: HEK-Blue cells
T2 sequence (Q9NR97 27-1041): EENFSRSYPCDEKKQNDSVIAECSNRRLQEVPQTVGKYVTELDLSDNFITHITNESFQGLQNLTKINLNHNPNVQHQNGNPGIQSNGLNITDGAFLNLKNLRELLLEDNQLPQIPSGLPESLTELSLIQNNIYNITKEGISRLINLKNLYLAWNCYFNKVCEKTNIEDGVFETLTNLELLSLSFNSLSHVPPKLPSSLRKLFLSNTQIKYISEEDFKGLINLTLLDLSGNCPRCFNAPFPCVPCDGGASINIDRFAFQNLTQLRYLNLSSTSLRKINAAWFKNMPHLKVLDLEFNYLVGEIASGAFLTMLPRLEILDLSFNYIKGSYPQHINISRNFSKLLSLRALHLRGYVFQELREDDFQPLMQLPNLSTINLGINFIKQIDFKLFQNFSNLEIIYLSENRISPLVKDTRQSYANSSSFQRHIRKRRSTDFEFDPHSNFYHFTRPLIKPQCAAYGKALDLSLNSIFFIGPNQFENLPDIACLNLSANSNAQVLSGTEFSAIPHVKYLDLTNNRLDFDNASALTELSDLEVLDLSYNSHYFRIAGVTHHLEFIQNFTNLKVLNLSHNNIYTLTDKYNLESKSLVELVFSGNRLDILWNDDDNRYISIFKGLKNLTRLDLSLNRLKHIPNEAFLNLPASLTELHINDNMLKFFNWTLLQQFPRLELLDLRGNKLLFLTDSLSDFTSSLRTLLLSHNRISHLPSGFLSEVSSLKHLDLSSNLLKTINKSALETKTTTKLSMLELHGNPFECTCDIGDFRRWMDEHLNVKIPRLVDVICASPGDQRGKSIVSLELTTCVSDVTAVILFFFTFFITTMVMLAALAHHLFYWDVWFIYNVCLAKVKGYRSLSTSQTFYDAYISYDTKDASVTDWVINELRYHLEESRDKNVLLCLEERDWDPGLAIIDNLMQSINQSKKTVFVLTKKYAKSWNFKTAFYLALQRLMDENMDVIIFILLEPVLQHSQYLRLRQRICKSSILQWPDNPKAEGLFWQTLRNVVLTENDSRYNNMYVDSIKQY
Procedure, shortened: as §1

[3] = biological target: T3, human TLR9 (Homo sapiens, UniProt Q9NR96); assay: TLR9 inhibition reporter assay (HEK-Blue cells, SEAP reporter, ODN2006 stimulation); details: HEK-Blue cells overexpressing human TLR9, SEAP reporter, ODN2006 5 nM
T3 construct: host or cells: HEK-Blue cells
T3 sequence (Q9NR96 26-1032): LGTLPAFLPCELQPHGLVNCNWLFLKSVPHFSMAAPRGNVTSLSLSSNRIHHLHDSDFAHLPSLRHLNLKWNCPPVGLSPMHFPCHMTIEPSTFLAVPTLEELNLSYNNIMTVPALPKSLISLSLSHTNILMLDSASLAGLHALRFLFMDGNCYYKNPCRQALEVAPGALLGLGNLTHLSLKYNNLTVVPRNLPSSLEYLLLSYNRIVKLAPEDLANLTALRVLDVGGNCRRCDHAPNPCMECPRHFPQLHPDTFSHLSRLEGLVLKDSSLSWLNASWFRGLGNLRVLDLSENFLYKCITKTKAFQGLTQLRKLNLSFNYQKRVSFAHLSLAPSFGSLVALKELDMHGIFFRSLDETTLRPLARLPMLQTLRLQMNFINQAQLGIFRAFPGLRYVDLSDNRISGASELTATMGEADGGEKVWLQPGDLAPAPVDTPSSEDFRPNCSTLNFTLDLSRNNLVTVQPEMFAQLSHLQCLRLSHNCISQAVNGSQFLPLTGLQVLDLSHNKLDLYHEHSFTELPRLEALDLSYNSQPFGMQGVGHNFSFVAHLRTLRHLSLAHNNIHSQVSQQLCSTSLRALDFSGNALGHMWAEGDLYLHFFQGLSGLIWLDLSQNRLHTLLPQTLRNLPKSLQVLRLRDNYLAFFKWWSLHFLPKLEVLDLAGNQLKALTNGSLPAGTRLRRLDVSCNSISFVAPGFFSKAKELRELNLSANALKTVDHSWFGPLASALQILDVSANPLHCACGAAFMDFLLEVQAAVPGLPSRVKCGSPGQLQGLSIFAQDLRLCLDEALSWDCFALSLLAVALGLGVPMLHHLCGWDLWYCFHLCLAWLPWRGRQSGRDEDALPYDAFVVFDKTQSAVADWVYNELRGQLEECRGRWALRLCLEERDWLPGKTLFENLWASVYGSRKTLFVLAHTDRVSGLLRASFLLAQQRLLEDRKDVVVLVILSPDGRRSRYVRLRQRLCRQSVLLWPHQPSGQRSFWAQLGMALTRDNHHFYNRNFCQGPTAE
Procedure, shortened: as §1

| Compound | IC50 [1] | IC50 [2] | IC50 [3] |
| --- | --- | --- | --- |
| CCC(C)N1CCC(NC(=O)c2n[nH]c(-c3cc(C)c4ncnn4c3)c2C(C)C)CC1 (stereo not drawn) [Example 152] | 13.7 nM | 31.6 nM | 20900 nM |
| CNC1CCC(c2n[nH]c(-c3cc(C)c4ncnn4c3)c2C(C)C)CC1 (single isomer, unassigned) [Example 295] | 4.94 nM | 0.28 nM | 9710 nM |
| Cc1cc(-c2[nH]nc(C(=O)N[C@H]3CC[C@@H](NC4CCOC(C)(C)C4)CC3)c2C(C)C)cn2ncnc12 (stereo partly drawn) [Example 97] | 2.42 nM | 41.9 nM | 5490 nM |
| Cc1cc(-c2[nH]nc(C3CCC(N4CCN(C)CC4)CC3)c2C(C)C)cn2ncnc12 (single isomer, unassigned) [Example 287] | 13.3 nM | 0.54 nM | 29200 nM |
| CCN1CC(C(=O)N(C)C2CCC(c3n[nH]c(-c4cc(C)c5ncnn5c4)c3C(C)C)CC2)C1 (single isomer, unassigned) [Example 306] | 148 nM | 124 nM | > 50000 nM |
| CC(C)c1c(C(=O)NC2CCN(C)CC2)n[nH]c1-c1cn(C)c2ncccc12 [Example 41] | 1.19 nM | 2.66 nM | 8430 nM |
| Cc1cc(-c2[nH]nc(-c3ccc4cnccc4c3)c2C(C)C)cn2ncnc12 [Example 214] | 1.37 nM | 0.39 nM | 10300 nM |
| Cc1cc(-c2[nH]nc(C(=O)N[C@H]3CCCN(C4COC4)C3)c2C(C)C)cn2ncnc12 [Example 166] | 0.88 nM | 0.87 nM | 383 nM |
| Cc1cc(-c2[nH]nc(C(=O)N3CCC(N)CC3)c2C(C)C)cn2ncnc12 [Example 55] | 2.99 nM | 1.15 nM | > 50000 nM |
| CCN1CC(c2ccc(-c3n[nH]c(-c4cc(C)c5ncnn5c4)c3C(C)C)cc2)C1 [Example 325] | 19 nM | 0.19 nM | > 50000 nM |
| Cc1cc(-c2[nH]nc(C3CCC(N(C)C(=O)C4CN(C)C4)CC3)c2C(C)C)cn2ncnc12 (single isomer, unassigned) [Example 302] | 9.44 nM | 14.2 nM | > 50000 nM |
| CNC(=O)CN1CCC(c2n[nH]c(-c3cc(C)c4ncnn4c3)c2C(C)C)CC1 [Example 211, 2-(4-(4-isopropyl-5-(8-methyl-[1,2,4]triazolo[1,5-a]pyridin-6-yl)-1H-pyrazol-3-yl)piperidin-1-yl)-N-methylacetamide] | 0.79 nM | 0.58 nM | 14300 nM |
| Cc1cc(-c2[nH]nc(C(=O)N3CC[C@H](N)C3)c2C(C)C)cn2ncnc12 [Example 53] | 0.94 nM | 0.79 nM | 5070 nM |
| COc1cc(-c2[nH]nc(-c3cnc(C4CCN(C(C)C)CC4)cn3)c2C(C)C)cn2ncnc12 [Example 384] | 39.5 nM | 20.1 nM | > 50000 nM |
| Cc1cc(-c2[nH]nc(C(=O)N[C@H]3CC[C@@H](NCC4(C)COC4)CC3)c2C(C)C)cn2ncnc12 [Example 151] | 49.2 nM | 60 nM | 23400 nM |
| COc1cc(-c2[nH]nc(-c3ccc(C4CCN(CC(F)(F)F)CC4)cc3)c2C(C)C)cn2ncnc12 [Example 320] | 4.38 nM | 1.3 nM | 21900 nM |
| CCC(CC)N[C@H]1CC[C@H](NC(=O)c2n[nH]c(-c3cc(C)c4ncnn4c3)c2C(C)C)CC1 [Example 119] | 3.33 nM | 54.2 nM | > 50000 nM |
| COCCN1CCC(c2ccc(-c3n[nH]c(-c4cc(OC)c5ncnn5c4)c3C(C)C)cc2)CC1 [Example 318, 6-(4-isopropyl-3-(4-(1-(2-methoxyethyl)piperidin-4-yl)phenyl)-1H-pyrazol-5-yl)-8-methoxy-[1,2,4]triazolo[1,5-a]pyridine] | 6.23 nM | 0.83 nM | 21600 nM |
| Cc1cc(-c2[nH]nc(C(=O)N[C@@H]3CCCN(C)C3)c2C(C)C)cn2ncnc12 [Example 160] | 0.61 nM | 0.06 nM | 5300 nM |
| Cc1cc(-c2[nH]nc(-c3ccc4c(c3)CCN(C(C)C)C4)c2C(C)C)cn2ncnc12 [Example 246] | 60.8 nM | 154 nM | > 50000 nM |
| Cc1cc(-c2[nH]nc(C(=O)NC3CCC(NCC(C)(C)C)CC3)c2C(C)C)cn2ncnc12 (stereo not drawn) [Example 131] | 7.48 nM | 32.6 nM | 10900 nM |
| CNC(=O)c1n[nH]c(-c2cc(C)c3ncnn3c2)c1C(C)C [Example 27] | 29.7 nM | 2.87 nM | 388 nM |
| Cc1ncc(CN[C@H]2CC[C@H](NC(=O)c3n[nH]c(-c4cc(C)c5ncnn5c4)c3C(C)C)CC2)cn1 [Example 104] | 1.98 nM | 2.81 nM | 5600 nM |
| Cc1cc(-c2[nH]nc(C(=O)N[C@@H]3CCNC3)c2C(C)C)cn2ncnc12 [Example 50] | 1.27 nM | 2.74 nM | 17300 nM |
